From ChEMBL document CHEMBL6109089, “Design, synthesis and optimization of Apcin analogues as Cdc20 inhibitors for triple-negative breast cancer therapy” (Eur J Med Chem, 2025)
pIC50: −log10 of the molar value.

system: HeLa; test: cells; details: Homo sapiens, 48 h
Description: Antiproliferative activity against human HeLa cells assessed as inhibition of cell growth measured after 48 hrs by CCK-8 method

Row | pIC50 | Compound
1 | 4.41 | CCN(CC)c1cc(Cl)nc(NC(NC(=O)OCCn2c([N+](=O)[O-])cnc2C)C(Cl)(Cl)Cl)n1 (stereo unspecified)
2 | 4.15 | Cc1ncc([N+](=O)[O-])n1CCOC(=O)NC(Nc1nc(Cl)cc(N(C)C)n1)C(Cl)(Cl)Cl (stereo unspecified)
3 | 4.48 | Cc1ncc([N+](=O)[O-])n1CCOC(=O)NC(Nc1nc(Cl)cc(-c2ccccc2)n1)C(Cl)(Cl)Cl (stereo unspecified)

system: MDA-MB-231; test: cells; details: Homo sapiens, MDA-MB-231, 48 h
Description: Antiproliferative activity against human MDA-MB-231 cells assessed as inhibition of cell growth measured after 48 hrs by CCK-8 method

Row | pIC50 | Compound
4 | 5.14 | O=C(NC(Nc1nc(Cl)cc(Nc2ccc(C(F)(F)F)cc2)n1)C(Cl)(Cl)Cl)OCCCCc1ccccc1 (stereo unspecified)
5 | 4.86 | O=C(NC(Nc1nc(Cl)cc(Nc2ccc(C(F)(F)F)cc2)n1)C(Cl)(Cl)Cl)OCCCc1cccnc1 (stereo unspecified)
6 | 5.18 | O=C(NC(Nc1nc(Cl)cc(Nc2ccc(C(F)(F)F)cc2)n1)C(Cl)(Cl)Cl)OCCc1ccccc1 (stereo unspecified)
7 | 5.25 | Cc1ncc([N+](=O)[O-])n1CCOC(=O)NC(Nc1nc(Cl)cc(Nc2ccc(OC(F)(F)F)cc2)n1)C(Cl)(Cl)Cl (stereo unspecified)
8 | 4.79 | CCN(CC)c1cc(Cl)nc(NC(NC(=O)OCCn2c([N+](=O)[O-])cnc2C)C(Cl)(Cl)Cl)n1 (stereo unspecified)
9 | 5.12 | O=C(NC(Nc1nc(Cl)cc(Nc2ccc(C(F)(F)F)cc2)n1)C(Cl)(Cl)Cl)OCCc1ccncc1 (stereo unspecified)
10 | 4.96 | Cc1ncc([N+](=O)[O-])n1CCOC(=O)NC(Nc1nc(Cl)cc(Nc2ccc(C#N)cc2)n1)C(Cl)(Cl)Cl (stereo unspecified)
11 | 5.36 | Cc1ncc(C(=O)NCCOC(=O)NC(Nc2nc(Cl)cc(Nc3ccc(C(F)(F)F)cc3)n2)C(Cl)(Cl)Cl)s1 (stereo unspecified)
12 | 5.09 | Cc1ncc([N+](=O)[O-])n1CCOC(=O)NC(Nc1nc(Cl)cc(Nc2ccc(F)cc2)n1)C(Cl)(Cl)Cl (stereo unspecified)
13 | 5.11 | Cc1cccc(Nc2cc(Cl)nc(NC(NC(=O)OCCn3c([N+](=O)[O-])cnc3C)C(Cl)(Cl)Cl)n2)c1 (stereo unspecified)
14 | 5.14 | O=C(NC(Nc1nc(Cl)cc(Nc2ccc(C(F)(F)F)cc2)n1)C(Cl)(Cl)Cl)OCCNC(=O)c1csc(Cl)n1 (stereo unspecified)
15 | 5.41 | O=C(NC(Nc1nc(Cl)cc(Nc2ccc(C(F)(F)F)cc2)n1)C(Cl)(Cl)Cl)OCCNC(=O)c1cnc(Cl)s1 (stereo unspecified)
16 | 5.14 | Cn1ccnc1C(=O)NCCOC(=O)NC(Nc1nc(Cl)cc(Nc2ccc(C(F)(F)F)cc2)n1)C(Cl)(Cl)Cl (stereo unspecified)
17 | 5.22 | Cc1ncc([N+](=O)[O-])n1CCOC(=O)NC(Nc1nc(Cl)cc(Nc2cccc(C(F)(F)F)c2)n1)C(Cl)(Cl)Cl (stereo unspecified)
18 | 4.44 | Cc1ncc([N+](=O)[O-])n1CCOC(=O)NC(Nc1nc(Cl)cc(N(C)C)n1)C(Cl)(Cl)Cl (stereo unspecified)
19 | 5.12 | Cc1ccc(Nc2cc(Cl)nc(NC(NC(=O)OCCn3c([N+](=O)[O-])cnc3C)C(Cl)(Cl)Cl)n2)cc1 (stereo unspecified)
20 | 4.73 | Cc1ncc([N+](=O)[O-])n1CCOC(=O)NC(Nc1nc(Cl)cc(-c2ccccc2)n1)C(Cl)(Cl)Cl (stereo unspecified)
21 | 5.14 | O=C(NC(Nc1nc(Cl)cc(Nc2ccc(C(F)(F)F)cc2)n1)C(Cl)(Cl)Cl)OCCCc1ccncc1 (stereo unspecified)
22 | 5.17 | Cc1ncc([N+](=O)[O-])n1CCOC(=O)NC(Nc1nc(Cl)cc(Nc2cccc(OC(F)(F)F)c2)n1)C(Cl)(Cl)Cl (stereo unspecified)
23 | 4.96 | O=C(NC(Nc1nc(Cl)cc(Nc2ccc(C(F)(F)F)cc2)n1)C(Cl)(Cl)Cl)OCCCc1ccccn1 (stereo unspecified)
24 | 4.79 | Cc1ncc([N+](=O)[O-])n1CCOC(=O)NC(Nc1nc(Cl)cc(Nc2cccc(C#N)c2)n1)C(Cl)(Cl)Cl (stereo unspecified)
25 | 5.34 | Cc1ncc([N+](=O)[O-])n1CCOC(=O)NC(Nc1ncc(Br)c(Nc2ccc(C(F)(F)F)cc2)n1)C(Cl)(Cl)Cl (stereo unspecified)
26 | 4.80 | Cc1ncc([N+](=O)[O-])n1CCOC(=O)NC(Nc1nc(Cl)cc(Nc2ccccc2F)n1)C(Cl)(Cl)Cl (stereo unspecified)
27 | 5.28 | Cc1ncc([N+](=O)[O-])n1CCOC(=O)NC(Nc1nc(Nc2ccc(C(F)(F)F)cc2)cc(C(F)(F)F)n1)C(Cl)(Cl)Cl (stereo unspecified)
28 | 5.38 | Cc1ncc([N+](=O)[O-])n1CCOC(=O)NC(Nc1ncc(Cl)c(Nc2ccc(C(F)(F)F)cc2)n1)C(Cl)(Cl)Cl (stereo unspecified)
29 | 5.12 | O=C(NC(Nc1nc(Cl)cc(Nc2ccc(C(F)(F)F)cc2)n1)C(Cl)(Cl)Cl)OCc1ccccc1 (stereo unspecified)
30 | 4.86 | O=C(NC(Nc1nc(Cl)cc(Nc2ccc(C(F)(F)F)cc2)n1)C(Cl)(Cl)Cl)OCCc1cccnc1 (stereo unspecified)
31 | 5.06 | Cc1ncc([N+](=O)[O-])n1CCOC(=O)NC(Nc1nc(Cl)cc(Nc2cccc(F)c2)n1)C(Cl)(Cl)Cl (stereo unspecified)
32 | 5.27 | O=C(NC(Nc1nc(Cl)cc(Nc2ccc(C(F)(F)F)cc2)n1)C(Cl)(Cl)Cl)OCCc1ccccn1 (stereo unspecified)
33 | 5.17 | O=C(NC(Nc1nc(Cl)cc(Nc2ccc(C(F)(F)F)cc2)n1)C(Cl)(Cl)Cl)OCCCc1ccccc1 (stereo unspecified)

system: SiHa; test: cells; details: Homo sapiens, 48 h
Description: Antiproliferative activity against human SiHa cells assessed as inhibition of cell growth measured after 48 hrs by CCK-8 method

Row | pIC50 | Compound
34 | 4.45 | CCN(CC)c1cc(Cl)nc(NC(NC(=O)OCCn2c([N+](=O)[O-])cnc2C)C(Cl)(Cl)Cl)n1 (stereo unspecified)
35 | 4.32 | Cc1ncc([N+](=O)[O-])n1CCOC(=O)NC(Nc1nc(Cl)cc(N(C)C)n1)C(Cl)(Cl)Cl (stereo unspecified)
36 | 4.38 | Cc1ncc([N+](=O)[O-])n1CCOC(=O)NC(Nc1nc(Cl)cc(-c2ccccc2)n1)C(Cl)(Cl)Cl (stereo unspecified)
